From the NIST ThermoML archive (doi:10.1016/j.tca.2016.06.022)

Test: xn = mol fraction of the nth substance listed
Details: 101 kPa, Liquid, Vibrating tube method

NCCN [ethane-1,2-diamine] + O
mass density [kg/m3]
Details	288.15 K	298.15 K	308.15 K
x1 = 0.002	–	996.85	993.82
x1 = 0.0033	–	996.68	993.64
x1 = 0.0047	–	996.5	993.43
x1 = 0.0072	–	996.2	993.09
x1 = 0.009	–	995.97	992.86
x1 = 0.0123	–	995.55	992.39
x1 = 0.0222	–	994.61	991.25
x1 = 0.0436	–	993.31	989.53
x1 = 0.0609	–	992.96	988.77
x1 = 0.0827	–	993.06	988.38
x1 = 0.106	–	993.56	988.34
x1 = 0.1481	–	994.9	988.68
x1 = 0.2063	–	995.33	987.95
x1 = 0.2513	–	993.49	985.55
x1 = 0.3148	–	985.82	978.7
x1 = 0.3258	–	985.17	–
x1 = 0.341	–	984.26	975.15
x1 = 0.4038	–	974.96	965.9
x1 = 0.4489	–	967.22	958.22
x1 = 0.4928	–	959.94	950.76
x1 = 0.5468	–	950.96	942.44
x1 = 0.5907	–	943.88	934.72
x1 = 0.6361	945.77	936.87	927.73
x1 = 0.6843	938.88	929.8	920.72
x1 = 0.7386	931.34	922.53	913.33
x1 = 0.7954	924.08	914.93	905.7
x1 = 0.81	922.08	912.91	903.69
x1 = 0.8505	917.35	908.14	–
x1 = 0.898	912.03	902.85	–
x1 = 0.9282	908.76	899.58	–
x1 = 0.9584	905.56	896.29	–
x1 = 0.9678	904.59	895.3	–
x1 = 0.9793	903.4	894.08	–
x1 = 1	901.26	891.9	–
